Test results from publication PMC9680032, “Conformationally Locked Carbocyclic Nucleosides Built on a 4′-Hydroxymethyl-3′-hydroxybicyclo[4.1.0]heptane Template. Stereoselective Synthesis and Antiviral Activity” (The Journal of Organic Chemistry, 2022).
In brackets after ≈: the same amount, converted by molar mass.

B1: UDA: reference agent against Human Coronavirus (229E) in Table S1 (protein, UniProt P11218 24-372, looked up)
Lectin/endochitinase 1: QRCGSQGGGGTCPALWCCSIWGWCGDSEPYCGRTCENKCWSGERSDHRCGAAVGNPPCGQDRCCSVHGWCGGGNDYCSGSKCQYRCSSSVRGPRVALSGNSTANSIGNVVVTEPLFDQMFSHRKDCPSQGFYSYHSFLVAAESFPAFGTIGDVATRKREVAAFLAHISQATSGERSDVENPHAWGLCHINTTTVTENDFCTSSDWPCAAGKKYSPRGPIQLTHNFNYGLAGQAIGEDLIQNPDLVEKDPIISFKTALWFWMSQHDNKPSCHDIVLNANSAANRIPNKGVIGNIISRAFGHDDFAVRSSSIGFYKRYCDMLGVSYGHDLKYWFDNTPSSEFQRIQMRVAA

Experiments:
Vaccinia virus = assay: microbe, parasite or virus in culture; assay type: cell-based; settings: Orthopoxvirus vaccinia, HEL, read-out: Antiviral EC50 Vaccinia virus
in vitro [1] = settings: human
[2] = test system: Herpes simplex virus-1 (KOS); assay: microbe, parasite or virus in culture; assay type: cell-based; settings: Human alphaherpesvirus 1, HEL, read-out: Antiviral EC50 Herpes simplex virus-1 (KOS)
[3] = test system: Herpes simplex virus-2 (G); assay: microbe, parasite or virus in culture; assay type: cell-based; settings: Human alphaherpesvirus 2, HEL, read-out: Antiviral EC50 Herpes simplex virus-2 (G)
Adeno virus-2 = assay: organism not typed; assay type: cell-based; settings: HEL, read-out: Antiviral EC50 Adeno virus-2
[4] = test system: Vesicular stomatitis virus; assay: microbe, parasite or virus in culture; assay type: cell-based; settings: Vesicular stomatitis virus, HEp-2, read-out: Antiviral EC50 Vesicular stomatitis virus
[5] = test system: Human immunodeficiency virus (ROD); assay: Antiviral CPE assay, HIV-2 (ROD) in MT-4 cells; assay type: cell-based; settings: Human immunodeficiency virus 2, MT4
[6] = Cytotoxicity in MT-4 cell cultures (MTS); settings: human, Cytotoxixity CC50, MT-4 cell cultures, MTS assay
Human Coronavirus (229E) = assay: microbe, parasite or virus in culture; assay type: cell-based; settings: for EC50: Human coronavirus 229E, HEL, read-out: Antiviral EC50 Human Coronavirus (229E)
[7] = test system: Respiratory syncytial virus; assay: Antiviral CPE assay, Respiratory syncytial virus in HEp-2 cells; assay type: cell-based; settings: human respiratory syncytial virus, HEp-2
Coxsackie virus B4 [8] = assay: Antiviral CPE assay, Coxsackie virus B4 in Vero cells; assay type: cell-based; settings: Enterovirus B, B4, Vero
in vitro [9] = settings: dog
[10] = test system: Human immunodeficiency virus (IIIB); assay: Antiviral CPE assay, HIV-1 (IIIB) in MT-4 cells; assay type: cell-based, human immunodeficiency virus type 1 (HIV-1); settings: Human immunodeficiency virus 1, IIIB, MT4
[11] = test system: Influenza A virus A/HK/7/87 (H3N2); assay: Antiviral CPE assay, Influenza A (H3N2) in MDCK cells; assay type: cell-based; settings: Influenza A virus, H3N2, MDCK
[12] = Cytotoxicity in Vero cell cultures (MTS); assay type: cell-based, African green monkey; settings: African green monkey, Vero cells (kidney epithelial cells), uninfected, MTS assay, read-out: Cytotoxixity CC50
Coxsackie virus B4 [13] = assay: Antiviral CPE assay, Coxsackie virus B4 in HEp-2 cells; assay type: cell-based; settings: Enterovirus B, B4, HEp-2
[14] = Cytotoxicity in HEp-2 cell cultures (MTS); settings: human
Zika virus = assay: Antiviral CPE assay, Zika virus in Vero cells; assay type: cell-based; settings: Zika virus, Vero
Punta Toro virus = assay: Antiviral CPE assay, Punta Toro virus in Vero cells; assay type: cell-based; settings: Punta Toro virus, Vero
Reo-virus-1 = assay: Antiviral CPE assay, Reovirus-1 in Vero cells; assay type: cell-based; settings: Vero
Sindbis virus = assay: Antiviral CPE assay, Sindbis virus in Vero cells; assay type: cell-based; settings: Sindbis virus, Vero
[15] = test system: Influenza A virus A/Ned/378/05A (H1N1); assay: Antiviral CPE assay, Influenza A (H1N1) in MDCK cells; assay type: cell-based; settings: Influenza A virus, H1N1, MDCK
[16] = test system: Influenza B virus B/Ned/537/05; assay: Antiviral CPE assay, Influenza B in MDCK cells; assay type: cell-based; settings: Influenza B virus; MDCK cell cultures
Yellow Fever virus = assay: microbe, parasite or virus in culture; assay type: cell-based; settings: Yellow fever virus, Vero, read-out: Antiviral EC50 Yellow Fever virus, Vero cell cultures

Row | Molecule | EC50 (Vaccinia virus) | EC50 [2] | EC50 [3] | EC50 (Adeno virus-2) | EC50 [4] | EC50 [5] [µg/mL] | CC50 [6] [µg/mL] | EC50 [7] | EC50 (Coxsackie virus B4 [8]) | CC50 (in vitro [9]) | EC50 [10] [µg/mL] | EC50 [11] | CC50 [12] | EC50 (Coxsackie virus B4 [13]) | CC50 [14] | EC50 (Zika virus) | EC50 (Punta Toro virus) | EC50 (Reo-virus-1) | EC50 [15] | EC50 [16] | other results
1 | Nc1nc2c(ncn2COCCO)c(=O)[nH]1 [Acyclovir, reference compound] | > 250 µM | 1.9 µM | 0.5 µM | – | – | – | – | – | – | – | – | – | – | – | – | – | – | – | – | – | CC50 (in vitro [1]): > 250 µM
2 | Cc1cn([C@H]2C[C@H](F)[C@@H](CO)O2)c(=O)[nH]c1=O [Alovudine, reference compound] | – | – | – | 0.4 µM | – | – | – | – | – | – | – | – | – | – | – | – | – | – | – | – | –
3 | O=c1[nH]c(=O)n([C@H]2C[C@H](O)[C@@H](CO)O2)cc1/C=C/Br [Brivudin, reference compound] | 12.6 µM | 0.2 µM | 22.1 µM | – | – | – | – | – | – | – | – | – | – | – | – | – | – | – | – | – | CC50 (in vitro [1]): > 250 µM
4 | Nc1ccn(C[C@@H](CO)OCP(=O)(O)O)c(=O)n1 [Cidofovir, reference compound] | 8.7 µM | 39.3 µM | 7.5 µM | 9.9 µM | – | – | – | – | – | – | – | – | – | – | – | – | – | – | – | – | CC50 (in vitro [1]): > 250 µM
5 | Nc1nc2c(ncn2C2CC(O)C(CO)C3CC32)c(=O)[nH]1 (stereo not drawn) [Compound 1b, 2-Amino-9-[(1′S,2′S,4′R,5′S,6′S)-4′-hydroxy-5′-(hydroxymethyl) Bicyclo[4.1.0]hept-2′-yl]-1,9-dihydro-6H-purin-6-one] | > 50 µg/mL | > 50 µg/mL | > 50 µg/mL | > 50 µg/mL | > 50 µg/mL | > 125 | > 125 | > 50 µg/mL | > 50 µg/mL | > 50 µg/mL | > 125 | > 50 µg/mL | > 50 µg/mL | > 50 µg/mL | > 50 µg/mL | > 50 µg/mL | > 50 µg/mL | > 50 µg/mL | > 50 µg/mL | > 50 µg/mL | EC50 (Human Coronavirus (229E)): > 50 µg/mL; EC50 (Sindbis virus): > 50 µg/mL; EC50 (Yellow Fever virus): > 50 µg/mL
6 | NC(=O)c1cn(C2CC(O)C(CO)C3CC32)nn1 (stereo not drawn) [Compound 3a, 1-[(1′S,2′S,4′R,5′R,6′R)-4′-Hydroxy-5′-(hydroxymethyl)bicyclo[4.1.0]hept-2′-yl]-1H-1,2,3-triazole-4-carboxamide] | > 50 µg/mL | > 50 µg/mL | > 50 µg/mL | > 50 µg/mL | > 50 µg/mL | > 125 | > 125 | > 50 µg/mL | > 50 µg/mL | > 50 µg/mL | > 125 | > 50 µg/mL | > 50 µg/mL | > 50 µg/mL | > 50 µg/mL | > 50 µg/mL | > 50 µg/mL | > 50 µg/mL | > 50 µg/mL | > 50 µg/mL | EC50 (Human Coronavirus (229E)): > 50 µg/mL; EC50 (Sindbis virus): > 50 µg/mL; EC50 (Yellow Fever virus): > 50 µg/mL
7 | OCC1C(O)CC(n2cc(-c3ccccc3)nn2)C2CC12 [Compound 3c, (1R,2R,3R,5S,6S)-2-(Hydroxymethyl)-5-(4″-phenyl-1H-1″,2″,3″-triazol-1-yl)bicyclo[4.1.0]heptan-3-ol] | > 50 µg/mL | > 50 µg/mL | > 50 µg/mL | > 50 µg/mL | > 50 µg/mL | > 96.2 | 96.2 (≈ 337 µM) | > 50 µg/mL | > 50 µg/mL | 20.4 µg/mL | > 96.2 | > 50 µg/mL | > 50 µg/mL | > 50 µg/mL | > 50 µg/mL | > 50 µg/mL | > 50 µg/mL | > 50 µg/mL | > 50 µg/mL | > 50 µg/mL | EC50 (Human Coronavirus (229E)): > 50 µg/mL; EC50 (Sindbis virus): > 50 µg/mL; EC50 (Yellow Fever virus): > 50 µg/mL
8 | OCc1cn(C2CC(O)C(CO)C3CC32)nn1 [Compound 3e, (1R,2R,3R,5S,6S)-2-(Hydroxymethyl)-5-[4″-(hydroxymethyl)-1H-1″,2″,3″-triazol-1‴-yl]bicyclo[4.1.0]heptan-3-ol] | > 50 µg/mL | > 50 µg/mL | > 50 µg/mL | > 50 µg/mL | > 50 µg/mL | > 116 | ≥ 116 | > 50 µg/mL | > 50 µg/mL | > 50 µg/mL | > 116 | > 50 µg/mL | > 50 µg/mL | > 50 µg/mL | > 50 µg/mL | > 50 µg/mL | > 50 µg/mL | > 50 µg/mL | > 50 µg/mL | > 50 µg/mL | EC50 (Human Coronavirus (229E)): > 50 µg/mL; EC50 (Sindbis virus): > 50 µg/mL; EC50 (Yellow Fever virus): > 50 µg/mL
9 | Cc1cn(C2CC=C(CO)C3CC32)c(=O)[nH]c1=O (stereo not drawn) [Compound 19, 1-[(1′S,2′S,6′R)-5′-(hydroxymethyl)-bicyclo[4.1.0]hept-4′-en-2′-yl]-5-methylpyrimidine-2,4(1H,3H)-dione] | > 50 µg/mL | > 50 µg/mL | > 50 µg/mL | > 50 µg/mL | > 50 µg/mL | > 109 | 109 (≈ 440 µM) | > 50 µg/mL | > 50 µg/mL | 18.6 µg/mL | > 109 | > 50 µg/mL | > 50 µg/mL | > 50 µg/mL | > 50 µg/mL | > 50 µg/mL | > 50 µg/mL | > 50 µg/mL | > 50 µg/mL | > 50 µg/mL | EC50 (Human Coronavirus (229E)): > 50 µg/mL; EC50 (Sindbis virus): > 50 µg/mL; EC50 (Yellow Fever virus): > 50 µg/mL
10 | O=c1[nH]cnc2c1ncn2[C@H]1CC[C@@H](CO)O1 [Didanosine, reference compound] | – | – | – | – | – | 19.4 (≈ 82.1 µM) | > 50 | – | – | – | 17.9 (≈ 76 µM) | – | – | – | – | – | – | – | – | – | –
11 | Nc1nc(O)c2ncn(COC(CO)CO)c2n1 [Ganciclovir, reference compound] | > 100 µM | 0.4 µM | 0.09 µM | – | – | – | – | – | – | – | – | – | – | – | – | – | – | – | – | – | CC50 (in vitro [1]): > 100 µM
12 | COc1c(C)c2c(c(O)c1C/C=C(\C)CCC(=O)O)C(=O)OC2 [Mycophenolic acid, reference compound] | – | – | – | – | – | – | – | – | > 100 µM | – | – | – | > 100 µM | – | – | 0.2 µM | > 100 µM | 7.1 µM | – | – | EC50 (Sindbis virus): 3.6 µM; EC50 (Yellow Fever virus): 2.6 µM
13 | NC(=O)c1ncn([C@@H]2O[C@H](CO)[C@@H](O)[C@H]2O)n1 [Ribavirin, reference compound] | – | – | – | – | 149 µM | – | – | 6.7 µM | – | > 100 µM | – | 6.4 µM | – | 117 µM | > 250 µM | – | – | – | 7.4 µM | 9.3 µM | –
14 | CC(N)C12CC3CC(CC(C3)C1)C2 (centres unmarked) [Rimantadine, reference compound] | – | – | – | – | – | – | – | – | – | > 200 µM | – | 0.06 µM | – | – | – | – | – | – | 88.8 µM | > 200 µM | –
15 | Nc1ccn([C@H]2CC[C@@H](CO)O2)c(=O)n1 [Zalcitabine, reference compound] | – | – | – | 12 µM | – | – | – | – | – | – | – | – | – | – | – | – | – | – | – | – | –
16 | CC(=O)N[C@H]1[C@H]([C@H](O)[C@H](O)CO)OC(C(=O)O)=C[C@@H]1N=C(N)N [Zanamivir, reference compound] | – | – | – | – | – | – | – | – | – | > 100 µM | – | 4.9 µM | – | – | – | – | – | – | 0.9 µM | 1.4 µM | –
17 | Cc1cn([C@H]2C[C@H](N=[N+]=[N-])[C@@H](CO)O2)c(=O)[nH]c1=O [Zidovudine, reference compound] | – | – | – | – | – | 0.002 (≈ 0.00748 µM) | > 2 | – | – | – | 0.002 (≈ 0.00748 µM) | – | – | – | – | – | – | – | – | – | –
18 | B1 | – | – | – | – | – | – | – | – | – | – | – | – | – | – | – | – | – | – | – | – | Antiviral EC50 Human Coronavirus (229E) (Human Coronavirus (229E); HEL cell cultures): 1.2 µg/mL
